A value given as a limit tells only on which side of the number the result lay.

One assay deals with THX cells. The assay is described as follows: Photochemically induced GFP expression after pEGFP-N1-pLys transfection (flow cytometry). It counts as cell-based. Particulars: for change in GFP expression with photosensitiser and light: pEGFP-N1-pLys complex plus photosensitiser and light, FIG. 5a, 5b; for fraction of the cells positive for GFP: AlPcS2a plus pEGFP-N1-pLys complex. The procedure: Plasmid-pLys complexes (charge ratio, 1.7) were prepared by gently mixing 5 μg plasmid (pEGFP-N1; Clontech Laboratories, Inc., Palo Alto, Calif.) in 75 μl of HBS with 5.3 μg pLys (MW 20700; Sigma, St. Louis, Mo.) in 75 μl of HBS. The solutions were incubated for 30 min at room temperature, diluted with culture medium and added to the cells.
THX cells were incubated with 20 μg/ml AlPcS2a for 18 hours at 37° C., washed and incubated in sensitizer-free medium for 3 hours before incubation with plasmid-pLys complexes for 2 hours. The pEGFP-N1/pLys treated THX cells were washed once and incubated for 2 hours in culture medium without additions before exposure to light. The cells were incubated at 37° C. for 2 days, subcultured and further incubated for an additional 5 days before analysis of GFP expression by flow cytometry.
The cells were trypsinised, centrifuged, resuspended in 400 μl of culture medium and filtered through a 50 μm mesh nylon filter. The cells were then analysed in a FACStar plus flow cytometer (Becton Dickinson). Green Fluorescent Protein (GFP) was measured through a 510-530 nm filter after excitation with an argon laser (200 mW) tuned on 488 nm. AlPcS2a was measured through a 650 nm longpass filter after excitation with a krypton laser (50 mW) tuned on 351-356 nm. Cell doublets were discriminated from single cells by gating on the pulse width of the GFP fluorescence signal. The data were analysed with PC Lysys II software (Becton Dickinson).
The expression of GFP was analysed by flow cytometry (FIGS. 5a and b) and fluorescence microscopy (data not shown). […] The fraction of the cells that was positive for this reporter molecule increased from 1% at no light treatment to 50% after a 5-min light exposure. […] Consequently, in a light-directed manner, PCI can substantially increase the efficiency of transfection of a functional gene to THX cells.
Background: In flow cytometry, cells or beads pass a laser one at a time.

A further assay concerns NHIK 3025 cells. The assay is described as follows: PCI-induced release of endocytosed HRP into the cytosol. It counts as cell-based, human. As to conditions: 3.2 μg/ml TPPS2a and 1 mg/ml HRP for 18 h, then light; FIG. 4. The procedure:
In this experiment NHIK 3025 cells (carcinoma cells in situ from human cervix) were treated with the photosensitising agent TPPS2a (3.2 μg/ml) and 1 mg/ml HRP for 18 hours. HRP activity was measured according to the procedure described in Steinman et al., J. Cell Biol., 68: 665-687, 1976. Cytosol was separated from cytosol-free cell corpses by electropermeabilisation and a density centrifugation technique (Berg et al., Int. J. Cancer 59: 814-822, 1994).

The next assay relates to BL2-G-E6 cells. Description: Photochemically induced relocalisation of fluorescein-labelled ras peptide (fluorescence microscopy). The format is cell-based, mouse. As to conditions: peptide plus AlPcS2a; after a 4-min exposure to red light. The method, then:
Two different light sources were used for treatment of the cells, both consisting of a bank of 4 fluorescent tubes.
The cells were analysed by fluorescence microscopy as described in Berg. K., et al., Biochem. Biophys. Acta., 1370: 317-324, 1998. For analysis of fluorescein-labelled molecules the microscope was equipped with a 450-490 nm excitation filter, a 510 nm dichroic beam splitter and a 510-540 nm band pass emission filter.
BL2-G-E6 cells were incubated with 30 μg/ml of the fluorescein-labelled p21^ras-derived peptide for 18 hours followed by 20 μg/ml AlPcS2a for 18 hours and 1 hour in drug-free medium before exposure to red light.
To evaluate PCI for cytosolic delivery of cancer-specific peptides, a fluorescein-labelled p21^ras peptide encompassing residues 5-21 and containing a Val^12 mutation (G12V) was used (Gjertsen, M. K., et al., Int. J. Cancer, 72: 784-790, 1997). […] Similar effects were not observed in cells exposed to the fluorescein-labelled ras peptide and light only (data not shown).

With `Oc1cccc(-c2c3nc(c(-c4cccc(O)c4)c4ccc([nH]4)c(-c4cccc(O)c4)c4nc(c(-c5cccc(O)c5)c5ccc2[nH]5)C=C4)C=C3)c1` [3-THPP], the “change in GFP expression with photosensitiser and light” value with THX cells is reported as “only a minor increase”.

As for Horseradish Peroxidase [HRP], the “fraction of endocytosed HRP released into the cytosol” value with NHIK 3025 cells is on record as > 60%.

Consider “aluminum phthalocyanine with 2 sulfonate groups on adjacent phenyl rings [AlPcS2a]”, for which the entries for the “fraction of the cells positive for GFP” value in the assay with THX cells (after a 5-min light exposure) and in the assay on THX cells (no light treatment) were 50% and 1%, respectively. Further, in the assay on THX cells, the “change in GFP expression with photosensitiser and light” value is on record as “strong increase”. In the assay on BL2-G-E6 cells, the “localisation after light exposure” value is “located diffusely in the cytoplasm”.

The values above are taken from patent US8216587B1, “Method of vaccination” (PCI Biotech AS, priority 1999, dated 2012).
